From US6352993B1, “Pyrimidine derivatives and processes for the preparation thereof” (Yuhan Corporation, priority 1997, dated 2002)

What was measured:
[1] = system: gastric secretion in pylorus-ligated Sprague-Dawly rats; assay: Inhibition of gastric secretion (pylorus-ligated rats, Shay method); format: in vivo; conditions: 20 mg/kg intraduodenally, 5 hours; for Relative conc.: gastric juice acidity relative to omeprazole, equation (II); for Relative volume: gastric juice amount relative to omeprazole, equation (I); for Relative Acid Output: total acid output relative to omeprazole, equation (III)
Procedure: Test 2: Inhibition of gastric secretion
In accordance with the method disclosed in Shay, H., et al., Gastroenterology 5 43-61(1945), Test 2 was carried out.
Sprague-Dawly rats having a body weight of 170±10 g were divided into 3 groups(n=5) and deprived of food for 24 hours before the experiment with free access to water. Under ether anesthesia, the abdomen was incised, and the pylorus was ligated. As a comparative group, Group 1 was administered intraduodenally in a volume of 0.5 ml/200 g of 30% aqueous polyethylene glycol 400 solution. Groups 2 and 3 were administered intraduodenally with the compound of Example and omeprazole, respectively, each of which was suspended in 30% aqueous polyethylene glycol 400 solution at a concentration of 20 mg/kg. After closing the abdominal cavity, the rats were placed for 5 hours and then killed by cervical dislocation. The stomach was extracted to obtain gastric juice.
Tne gastric juice was centrifuged at 1,000 g to remove precipitates. The amount and acidity of the gastric juice were measured. Relative volumes, relative acid concentrations and relative acid outputs of the test compounds were calculated from equations(I), (II) and (III) and the results are shown in Table 2.
Relative volume=(the average amount of gastric juice of Group 1—the average amount of gastric juice of Group 2)/(the average amount of gastric juice of Group 1−the average amount of gastric juice of Group 3)—(I)
Relative acid concerntration=(the average acidity of Group 1—the average acidity of Group 2)/(the average acidity of Group 1—the average acidity of Group 3)—(II)
Relative acid output (the total amount of acid output of Group 1—the total amount of acid output of Group 2)/(the total amount of acid output of Group 1—the total amount of acid output of Group 3)—(m)

[2] = target: proton pump (H+/K+-ATPase) (UniProt P19156); assay: Inhibition of proton pump (H+/K+-ATPase activity); format: biochemical; parameters: Effect ratio; conditions: relative to omeprazole IC50
Procedure: (§1) Test 1: Inhibition of proton pump (H^+/K^+-ATPase activity)
(§2) A proton pump enzyme was prepared by the same method as in the Experiment 1-1 of WO 94/14795. Further, the inhibitory effect of proton pump activity was measured by the same method as in Experiment 1-2 of WO 94/14795.
(§3) Namely, the proton pump activity stimulated by Mg^++ was used as a negative comparative group, and the activity stimulated by Mg^++ and K^+ was used as a positive comparative group. The comparative compound was omeprazole.
(§4) Test tubes were divided into 4 groups: Group 1 as negative comparative group(n=3), Group 2 as positive comparative group(n=3), Group 3(n=5×2) to be administered with the compound of the present invention and Group 4(n=5×2) to be administered with the comparative compound.
(§5) The inhibitory effects of Groups 3 and 4 on proton pump activity were measured by employing the compound prepared in Examples and omeprazole, respectively, each of which was dissolved in dimethylsulfoxide at 5 different concentrations.
(§6) To each of Groups 1, 2, 3 and 4 were added 100 μl of magnesium chloride(40 mM) dissolved in 40 mM Tris-HCI buffer(ph 6.0) and 100 μg of the enzyme source. The 50 μl of potassium chloride(50 mM) and 50 μl of ammonium chloride(6 mM) dissolved in 40 mM Tris-HCl buffer(pH 6.0) were added to all groups except for group 1.
(§7) 10 μl of dimethylsulfoxide was added to each of Groups 1 and 2; and to Group 3 was added 10 μl of dimethylsulfoxide solution prepared by dissolving compound of EXAMPLE at 5 different concentration(n=5×2). To Group 4, 10 μl of the solution prepared by dissolving omeprazole in dimethylsulfoxide at 5 different concentration(37.6, 21.4, 12.2, 7.0 and 4.0 μM) was added(n=5×2). 40 mM Tris-HCI buffer(pH=6.0) was added thereto so as to make the total volume 400 μl.
(§8) Thereafter, the test tube of each Group were placed at 37° C. for 30 minutes for the preincubation. 100 μl ATP solution (6.6 mM) was added until the reaction volume became 500 μl. After the reaction was carried out at 37° C. for 30 minutes, 25% cold trichloroacetic acid was added to terminate the enzyme reaction. The released inorganic phosphate was measured by an automatic analyzer(Express 550, coming).
(§9) The difference between Group 1 and Group 2 represents the proton pump activity activated by K^+ only. The IC50s of Group 3 and 4 were calculated from Litchfield-wilcoxon equation[see, e.g., J. Pharrnacol. Exp. Ther., 96, 99(1949)]. The concentrations of the test compounds inhibiting 50% of the proton pump activity are represented as IC50 in Table 1.

[3] = target: proton pump (H+/K+-ATPase) (UniProt P19156); assay: Inhibition of proton pump (H+/K+-ATPase activity); format: biochemical; parameters: other: K+-stimulated proton pump activity, pH 6.0, 37°; conditions: K+-stimulated proton pump activity, pH 6.0, 37° C., 30 minutes preincubation; read-out: IC50 (concentration inhibiting 50% of the proton pump activity)
Procedure: as §1, §2, §3, §4, §5, §6, §7, §8, §9

In the case of `CCCNc1nc(COC)c(C)c(N2CCc3ccccc3C2)n1.Cl` [Example 25, 6-methoxymethyl-5-methyl-2-(2-methylethylamino)-4-(1,2,3,4-tetrahydroisoquinolin-2-yl)pyrimidine hydrochloride], the Relative conc. [1] is reported as 0.52, the Relative volume [1] is reported as 1.00 and the “Relative Acid Output” value [1] is reported as 0.86. For the same compound, the Effect ratio [2] was 6.0 and the IC50 [3] was 1.85 µM.
With `COCc1nc(Nc2ccc(F)cc2)nc(N2CCc3ccccc3C2)c1C.Cl` [Example 26, 6-methoxymethyl-5-methyl-2-(4-fluorophenylamino)-4-(1,2,3,4-tetrahydroisoquinolin-2-yl)pyrimidine hydrochloride] the Relative conc. [1] was 0.64, the Relative volume [1] was 0.67 and the “Relative Acid Output” value [1] was 0.74. For the same compound, the Effect ratio [2] was 4.3 and the IC50 [3] was 2.6 µM.
With `COCc1nc(Nc2ccc(F)cc2C)nc(N2CCc3ccccc3C2)c1C.Cl` [Example 27, 6-methoxymethyl-5-methyl-2-(4-fluoro-2-methylphenylamino)-4-(1,2,3,4-tetrahydroisoquinolin-2-yl)pyrimidine hydrochloride] the Relative conc. [1] was 0.68, the Relative volume [1] was 0.99 and the “Relative Acid Output” value [1] was 0.90. For the same compound, the Effect ratio [2] was 7.2 and the IC50 [3] was 1.55 µM.
For `COCc1nc(Nc2ccc(F)cc2)nc(N2CCc3ccccc3C2C)c1C.Cl` (stereo not drawn) [Example 28, 6-methoxymethyl-5-methyl-2-(4-fluorophenylamino)-4-(1-methyl-1,2,3,4-tetrahydroisoquinolin-2-yl)pyrimidine hydrochloride], the Relative conc. [1] was 0.60, the Relative volume [1] was 0.78 and the “Relative Acid Output” value [1] was 0.78. For the same compound, the Effect ratio [2] was 6.4 and the IC50 [3] was 1.74 µM.
`COCc1nc(Nc2ccc(F)cc2C)nc(N2CCc3ccccc3C2C)c1C.Cl` (stereo not drawn) [Example 29, 6-methoxymethyl-5-methyl-2-(2-methyl-4-fluorophenylamino)-4-(1-methyl-1,2,3,4-tetrahydroisoquinolin-2-yl)pyrimidine hydrochloride] was tested, and the Relative conc. [1] was 0.81, the Relative volume [1] was 0.78 and the “Relative Acid Output” value [1] was 0.88. For the same compound, the Effect ratio [2] was 4.4 and the IC50 [3] was 2.55 µM.
In the case of `COCc1nc(Nc2ccccc2)nc(N2CCc3ccccc3C2C)c1C.Cl` (stereo not drawn) [Example 31, 6-methoxymethyl-5-methyl-2-phenylamino-4-(1-methyl-1,2,3,4-tetrahydroisoquinolin-2-yl)pyrimidine hydrochloride], the Relative conc. [1] is reported as 0.97, the Relative volume [1] is reported as 1.06 and the “Relative Acid Output” value [1] is reported as 1.01. The Effect ratio [2] was 4.3 and the IC50 [3] was 2.56 µM.
For `Cc1c(CO)nc(Nc2ccccc2)nc1N1CCc2ccccc2C1C.Cl` (stereo not drawn) [Example 32, 6-hydroxymethyl-5-methyl-2-phenylamino-4-(1-methyl-1,2,3,4-tetrahydroisoquinolin-2-yl)pyrimidine hydrochloride], the Relative conc. [1] was 0.47, the Relative volume [1] was 0.84 and the “Relative Acid Output” value [1] was 0.77. The Effect ratio [2] was 8.3 and the IC50 [3] was 1.34 µM.
In the case of `Cc1ccccc1Nc1nc(CO)c(C)c(N2CCc3ccccc3C2C)n1.Cl` (stereo not drawn) [Example 34, 6-hydroxymethyl-5-methyl-2-(2-methylphenylamino)-4-(1-methyl-1,2,3,4-tetrahydroisoquinolin-2-yl)pyrimidine hydrochloride], the Relative conc. [1] is reported as 0.45, the Relative volume [1] is reported as 0.81 and the “Relative Acid Output” value [1] is reported as 0.78. It also gave an Effect ratio [2] of 25.8 and an IC50 [3] of 0.43 µM.
For `Cc1nc(Nc2ccc(F)cc2)nc(N2CCc3cc(O)ccc3C2C)c1C.Cl` (stereo not drawn) [Example 36, 5,6-dimethyl-2-(4-fluorophenylamino)-4-(1-methyl-6-hydroxy-1,2,3,4-tetrahydroisoquinolin-2-yl)pyrimidine hydrochloride], the Relative conc. [1] was 1.08, the Relative volume [1] was 1.05 and the “Relative Acid Output” value [1] was 1.15. The Effect ratio [2] was 35.8 and the IC50 [3] was 0.31 µM.
